For assay [1], the system named is ovalbumin-specific T-helper cell responses. Particulars: mice; cited from earlier work.
Assay [2] relates to asthma in a mouse model system. Particulars: cited from earlier work.
The subject of another assay is PDF1.2. The assay can be described thus: PDF1.2 expression in Arabidopsis leaves (semi-quantitative PCR / qRT-PCR). Particulars: for PDF1.2 expression in Arabidopsis: leaf pretreatment by syringe infiltration, 0.01, 0.3, and 10 μM; for PDF1.2 expression, ascaroside alone: leaf syringe infiltration (0.01 or 0.3 μM), semi-quantitative PCR. (In general: Quantitative PCR measures a nucleic acid by following its amplification.)

In assay [3] the test system is Pseudomonas syringae pv. tomato DC3000 (Pst). Put plainly: Resistance of Arabidopsis to Pseudomonas syringae pv. tomato DC3000 (bacterial growth). It is filed as in vivo. To be noted: for resistance to virulent Pst DC3000: leaf treatment at the concentration tested; for resistance to virulent Pst DC3000 (bacterial growth): leaf syringe infiltration 0.3 μM 24 hours prior to inoculation, 3 dpi.

Assay [4] relates to PR-1. The assay can be described thus: PR-1 expression in Arabidopsis leaves (semi-quantitative PCR / qRT-PCR). To be noted: for PR-1 expression, ascaroside alone: leaf syringe infiltration (0.01 or 0.3 μM), semi-quantitative PCR; for PR-1 expression in Arabidopsis: leaf pretreatment by syringe infiltration, 0.01, 0.3, and 10 μM.
The subject of a further assay is Botrytis cinerea. Put plainly: Resistance of tomato to Botrytis cinerea B05.01 (detached leaflet assay). Particulars: tomato cv. M82; root immersion 0.01 μM 48 hours before. It is filed as in vivo.
The next assay relates to Heterodera schachtii. The assay can be described thus: Arabidopsis cyst nematode infection assay. It is filed as in vivo. Particulars: higher concentrations than 10 nM.
In a further assay the test system is M. incognita. Put plainly: Arabidopsis root knot nematode infection assay. It is filed as in vivo, Meloidogyne incognita. Particulars: higher concentrations than 10 nM.
Assay [5] concerns PR-1. Put plainly: PR-1 protein/transcript induction in tobacco leaves (immunoblot, RT-PCR). To be noted: low concentrations of ascaroside. For orientation: In western blotting, separated proteins are transferred to a membrane and probed.
Protocol: Four-weeks old tobacco plants were syringe-infiltrated with buffer, SA, or a mixture of SA (50 μM or 500 μM) and decreasing concentration of ascr #18 (10, 0.3, and 0.01 μM). PR-1 was assayed 48 hours after treatment by immunoblot using anti-PR-1 antibody.
PR-1 expression was analyzed 48 hp SA treatment.
To determine whether ascr #18 affects levels of the prototypic SA-responsive PR-1 gene/protein, tobacco plants were treated with varying concentrations of ascr #18 in the presence or absence of SA (FIG. 2).
The subject of a further assay is C. elegans. To be noted: cited from earlier work; for sex pheromone activity: mixture of three ascarosides.
Assay [6] has as its system Pseudomonas syringae pv. tabaci. The assay can be described thus: Resistance of tobacco to Pseudomonas syringae pv. tabaci (bacterial growth). To be noted: leaves treated with 250 μM SA alone.
Where [7] appears, read: ascaroside at low concentrations in combination with SA (50 μM).
The mark [8] stands for this setting: higher concentration of ascaroside with SA (50 μM).

Entries after “also recorded” stand apart in the source; their conditions may differ.

Regarding `CC1O[C@@H](O[C@H](C)CC/C=C/C(=O)O)C(O)C[C@H]1O` (stereo partly shown) [ascr #7], the “ovalbumin-specific T-helper cell responses” value in assay [1] is “strongly suppresses”. For the same molecule, the development of asthma result in assay [2] is “strongly suppressed the development of asthma”.
As to `CC1O[C@@H](OCCCCC(=O)O)C(O)C[C@H]1O` (stereo partly shown) [oscr #9], the “PDF1.2 expression in Arabidopsis” value with PDF1.2 was “−”. For the same molecule, the “resistance to virulent Pst DC3000” value in assay [3] is on record as “did not significantly enhance resistance”. For the same molecule, in the assay on PR-1 [4] (setting [7]), the “SA-induced PR-1 expression” value is “enhances PR-1 expression induced by SA”.
In the case of `CC1O[C@@H](O[C@H](C)CCCCCCCCC(=O)NCCO)C(O)C[C@H]1O` (stereo partly shown) [easc #18], the “resistance to virulent Pst DC3000 (bacterial growth)” value in [3] was “enhances resistance”. For the same molecule, the “resistance to B. cinerea (lesion size 3 dpi)” value in the assay on Botrytis cinerea was “enhanced resistance”.
For “(10R)-(3′R,5′R-dihydroxy-6′S-methyl-(2H)-tetrahydropyran-2-yloxy)-undecanoic Acid [ascr #18]”, the “infection with H. schachtii” value in the assay with Heterodera schachtii is reported as “less effective”. Besides, the “infection with M. incognita” value with M. incognita was “less effective”.
Regarding `CC1O[C@@H](O[C@H](C)CCCCCCC(=O)O)C(O)C[C@H]1O` (stereo partly shown) [ascr #10], the “PDF1.2 expression, ascaroside alone” value in the assay with PDF1.2 is reported as “induces PDF1.2 expression; also recorded: altered”. Besides, the “resistance to virulent Pst DC3000” value in assay [3] is given as “did not significantly enhance resistance”. In addition, the “SA-induced PR-1 expression” value in the assay with PR-1 [4] (setting [7]) was “enhances PR-1 expression induced by SA”. In addition, the “PR-1 expression, ascaroside alone” value in the assay on PR-1 [4] is “induces PR-1 expression; also recorded: altered”. Besides, the “PR-1 expression in tobacco cv. W38” value in the assay with PR-1 [5] was “did not significantly increase PR-1 expression”. In the assay on C. elegans, the response of hermaphrodites entry is given as “strongly attracts hermaphrodites”.
For `CC1O[C@@H](O[C@H](C)CCCC/C=C/C(=O)O)C(O)C[C@H]1O` (stereo partly shown) [ascr #3], in the assay on PDF1.2, the “PDF1.2 expression in Arabidopsis” value is “+” and the “PDF1.2 expression, ascaroside alone” value is reported as “induces PDF1.2 expression; also recorded: induced expression; also recorded: altered”. Also, the “resistance to virulent Pst DC3000 (bacterial growth)” value in [3] is recorded as “enhanced resistance”. The “SA-induced PR-1 expression” value in the assay with PR-1 [4] (setting [7]) is recorded as “enhances PR-1 expression induced by SA”. The “SA-induced PR-1 expression” value in the assay with PR-1 [4] (setting [8]) is recorded as “reduces the SA-induced PR-1 expression”. In the assay with PR-1 [4], the “PR-1 expression in Arabidopsis” value was “+” and the “PR-1 expression, ascaroside alone” value is reported as “induces PR-1 expression; also recorded: induced expression; also recorded: altered”. The “ovalbumin-specific T-helper cell responses” value in assay [1] was “no significant effect”. Moreover, in the assay on PR-1 [5], the “PR-1 expression in tobacco cv. W38” value is “did not significantly increase PR-1 expression”. In the assay with C. elegans, the response of hermaphrodites result is on record as “repels hermaphrodites” and the sex pheromone activity result is “active at low nanomolar concentrations”.
For the molecule `C[C@H](CCC(=O)O)O[C@@H]1O[C@@H](C)[C@H](O)C[C@H]1O` [ascr #9], in the assay with PDF1.2, the “PDF1.2 expression in Arabidopsis” value is “+” and the “PDF1.2 expression, ascaroside alone” value is reported as “induces PDF1.2 expression; also recorded: induced expression; also recorded: altered”. Besides, the “resistance to virulent Pst DC3000” value in assay [3] is “did not significantly enhance resistance”. For the same molecule, the “SA-induced PR-1 expression” value in the assay on PR-1 [4] (setting [7]) is recorded as “enhances PR-1 expression induced by SA”. The “SA-induced PR-1 expression” value with PR-1 [4] (setting [8]) is recorded as “reduces the SA-induced PR-1 expression”. Also, in the assay with PR-1 [4], the “PR-1 expression in Arabidopsis” value is “+” and the “PR-1 expression, ascaroside alone” value is given as “induces PR-1 expression; also recorded: induced expression; also recorded: altered”. Further, the “PR-1 expression in tobacco cv. W38” value in the assay on PR-1 [5] is reported as “did not significantly increase PR-1 expression”.
As for `CC1O[C@@H](O[C@H](C)CCCCC(=O)O)C(O)C[C@H]1O` (stereo partly shown) [ascr #1], the development of asthma entry in [2] is “strongly suppressed the development of asthma”.
`CC1O[C@@H](O[C@H](C)CCCC/C=C/C(=O)O)C(O)C[C@H]1OC(=O)c1ccc(O)cc1` (stereo partly shown) [hbas #3, reference compound]: the “promotion of aggregation behaviors” value in the assay on C. elegans is given as “active at femtomolar concentrations”.
As for `O=C(O)c1ccccc1O` [SA, salicylic acid, reference compound], the “protection against Pst” value in assay [3] (50 μM SA alone, leaf infiltration) was “low level of protection”. For the same molecule, the “virulent P.t. growth” value in assay [6] is given as “reduced levels of virulent P.t. growth”.
With `CC(=O)CC[C@@H](C)O[C@@H]1OC(C)[C@H](O)CC1O` (stereo partly shown) [ascr #2, reference compound], the sex pheromone activity entry with C. elegans was “active at low nanomolar concentrations”.
Turning to `CC1O[C@@H](O[C@H](C)CC/C=C/C(=O)Nc2ccc(C(=O)O)cc2)C(O)C[C@H]1O` (stereo partly shown) [ascr #8], the sex pheromone activity entry in the assay with C. elegans is listed as “active at low nanomolar concentrations”.

These data come from patent publication US12382888B2, “Compositions and methods for modulating immunity in plants” (Boyce Thompson Institute for Plant Research, Inc., priority 2013, dated 2025).
